One may read the IC50 as the midpoint of a concentration-inhibition curve.

Where only a bound is given, the exact number is not on record here.

The values that follow come from publication PMC10935723 (Chemical Science, 2024).

Assay [1] concerns SUIT2, MIA PaCa-2 and MDA-MB-231 cell lines. The experiment in a line: cells. The class given is cell-based. The settings on record: read-out: IC50 values (range).
In assay [2] the test system is HCT-15. The settings on record: read-out: IC50 HCT-15; cited from earlier work.
Assay [3] relates to NCI-H460. The following applies: read-out: IC50 NCI-H460; cited from earlier work.
The subject of assay [4] is patient-derived PDAC organoids. The class given is cell-based, human.
The subject of assay [5] is MIA PaCa-2/GemLuc cells. It counts as cell-based.
The subject of assay [6] is MCF-7 breast cancer cells. The experiment in a line: cells. The class given is cell-based. The settings on record: Homo sapiens, MCF7, 72 h, read-out: IC50 against MCF-7 breast cancer cells.

As for `COc1ccc(/C=C\c2cc(OC)c(OC)c(OC)c2)cc1O` [CA-4, combretastatin A4], the IC50 in assay [1] was 2.4 to 8.7 nM; in assay [2], 1.7 nM; in assay [3] it was 3 nM.

With `Cc1cc2cc(O)ccc2[nH]1` [Compound L01, 2-Methyl-1H-indol-5-ol], the “antiproliferative activity against patient-derived PDAC organoids” value in assay [4] is recorded as “no antiproliferative activity”. For the same compound, the “cell cycle arrest (red S/G2/M bioluminescence)” value in assay [5] is listed as “failed to elicit the same effect”.

For `C[C@]12CC[C@@H]3c4ccc(O)cc4CC[C@H]3[C@@H]1CCC2=O` [estrone (5), Estrone], the IC50 in assay [6] was more than 200000 nM.
